Laboratory results taken from patent US12501899B2, “Mite infestation treatment” (priority 2019, dated 2025).
Where a name gives a salt, the structure may show the parent alone. Read-outs that look alike come from different tables or passages of the source.

Experiments:
bees (Apis mellifera) = system: bees (Apis mellifera)
Protocol: The bees were then dispatched in the boxes (10 per box).
The bees were then put to sleep for a few minutes using CO2 (flow of 3 liters for 20 seconds) in order to deposit 1 μL of compound to be tested on their thorax using a pipette. It should be noted that the bees which received romifidine hydrochloride at a concentration of 10 μg/μL received 2 μL of product. The bees were unconscious for the time the compound to be tested was deposited, that is to say around three minutes, then they woke up.
After thoracic deposition of the compound to be tested, the 10 bees from the same box were transferred to a box containing the 10 Varroa mites (cf. “Preparation of Varroa mites” above). Liquid sugar was left in each of the boxes to feed the bees during the observations. The series of boxes was then placed in an oven at […] with a humidity of 50% in order to approximate hive conditions as closely as possible.
The mortality of Varroa mites and bees was then monitored 5 minutes, 2 hours, 4 hours and 24 hours after application of the compound to be tested to the bees. Dead Varroa mites correspond to Varroa mites detached from the bees. Dead bees correspond to bees which no longer move and which are often placed on their thorax.
The following compositions were applied to the thorax of the bees: • Solvent, • Amitraz at 1 μg/μL in acetone, • Clonidine hydrochloride at 100 μg/μL, 10 μg/μL, 1 μg/μL and 0.1 μg/μL in methanol, • Detomidine hydrochloride monohydrate at 1 μg/μL in methanol, • Dexmedetomidine hydrochloride at 100 μg/μL, 10 μg/μL, 1 μg/μL and 0.1 μg/μL in methanol, • Romifidine hydrochloride at 10 μg/μL and at 5 μg/μL in methanol, • Tizanidine hydrochloride at 1 μg/μL in methanol, • Medetomidine hydrochloride at 0.1 μg/μL in ethanol, • Levomedetomidine hydrochloride at 100 μg/μL, 10 μg/μL, 1 μg/μL and 0.1 μg/μL in methanol, • Octopamine at 1 μg/μL in ethanol. Results

bees = conditions: 100 μg/mL syrup ad libitum
Protocol: Bees and Varroa mites were obtained and contacted as detailed in Example 1 (without the treatment step).
The bees on which the Varroa mites are attached (10 bees placed in contact with 10 Varroa mites) were fed with: • A pure syrup (Negative control), or • A syrup comprising dexmedetomidine hydrochloride at 100 μg/mL syrup.
The syrup was provided to the bees ad libitum in 1.5 mL eppendorf tubes.

| Compound | mortality for bees (bees (Apis mellifera); 0.1 μg/μL, after 24 hours) | mortality / toxicity for the bees (bees (Apis mellifera); 1 μg/μL, after 24 hours) | mortality for bees (bees (Apis mellifera); 10 μg/μL, after 24 hours) | toxicity for bees (bees (Apis mellifera); 100 μg/μL) | % bee mortality (bees; 5 min) [%] | % bee mortality (bees; 1 h) [%] | % bee mortality (bees; 2 h) [%] | % bee mortality (bees; 3 h 30) [%] | % bee mortality (bees; 3 h 45) [%] | % bee mortality (bees; 24 h) [%] | bees killed / bee mortality (bees (Apis mellifera); 1 μg/μL, 1 μL on bee thorax, time not stated (monitored up to 24 hours)) [%] |
| --- | --- | --- | --- | --- | --- | --- | --- | --- | --- | --- | --- |
| Cc1cccc([C@H](C)c2c[nH]cn2)c1C [Dexmedetomidine hydrochloride, (S)-4-[1-(2,3-dimethylphenyl)-ethyl]-1H-imidazole] | less than 5% | less than 5% | less than 5% | toxic for bees | 0 | 0 | 5 | 5 | 5 | 5 | – |
| Cc1ccc(/N=C/N(C)/C=N/c2ccc(C)cc2C)c(C)c1 [Amitraz] | – | – | – | – | – | – | – | – | – | – | 0 |
